# Experimental data taken from patent publication US20230151342A1, “ZINC FINGER DEGRADATION DOMAINS” (THE BROAD INSTITUTE, INC, priority 2020, published 2023).
# Like-named read-outs stand apart in the source and are kept apart here. Where no end group is shown, it is not given here.
# Legend:
# [1] = test system: Jurkat cells expressing individual zinc fingers in the protein degradation reporter; assay: Validation of individual zinc fingers in eGFP/mCherry protein degradation reporter (single reporter degradation experiments); format: cell-based
# Method: FIG. 18A-18B Validation of individual hybrid zinc finger degrons. (FIG. 18A) Vehicle control-normalized eGFP/mCherry fluorescence ratios measured by flow cytometry for Jurkat cells expressing the indicated minimal 23 amino acid zinc finger degron constructs after treatment with pomalidomide or vehicle control. Experiments were performed in triplicate and error bars indicate standard deviation. […] (FIG. 18B) IC50 values for lenalidomide- or pomalidomide-induced degradation of endogenous and hybrid zinc fingers calculated from single reporter degradation experiments. (FIG. 18C) Jurkat cells expressing the 19BBz-d91.3 CAR were treated overnight with lenalidomide and the E1 inhibitor MLN7243 (500 nM), the Neddylation inhibitor […] (5000 nM), the lysosomal acidification inhibitor Chloroquine (50,000 nM), or the lysosomal acidification inhibitor Bafilomycin A (100 nM). CAR degradation requires ubiquitin ligase and Cullin-RING ligase function, and is insensitive to inhibition of autophagy.
# FIG. 23. Validation of individual hybrid zinc finger degrons. Individual 23 amino acid zinc finger domains were cloned into the Cilantro 2 protein degradation reporter lentivector. Jurkat cells were transduced with each of these viruses. The GFP/mCherry ratio was calculated in the presence of various thalidomide analogs, indicative of drug-dependent degradation. Dark Gray=hybrid zinc fingers. Light Gray=endogenous zinc fingers. Dotted line=ZFP91-IKZF3.
# Jurkat cells were created expressing each of the 6 hybrid and 8 associated parent ZFs and subjected them to a range of doses of lenalidomide, pomalidomide, avadomide, and iberdomide. […] The IC50 for degradation was lower for the 6 hybrid ZFs than their parent ZFs (FIG. 18B). […] One of these validated hybrids, ZFP91-IKZF3, was chosen with 1.6-6.0-times lower IC50 for degradation than IKZF3 across the tested thalidomide derivatives (FIG. 11G) hereafter termed “d91.3”, as a super degron tag for further CAR engineering, which was incorporated for evaluation of on and off-switch CARs.
# Jurkat cells expressing a library of 440 C2H2 zinc fingers in a eGFP/mCherry protein degradation reporter vector were treated with DMSO or thalidomide analog drug for 16 hours. mCherry^+eGFP^low cell populations were isolated by FACS in triplicate, and the relative frequency of individual ZFs was quantified with next-generation sequencing. For validation, Jurkat cells were engineered to express individual zinc fingers in the protein degradation reporter; the eGFP:mCherry ratio was determined by flow cytometry after 16 hour incubation with varying concentrations of thalidomide analogs.
# NALM6 target cells [2] = assay: Cellular cytotoxicity assay of primary human CAR-T cells; format: cell-based; details: 1000 nM lenalidomide; primary split CAR T cells sorted for components A, B
# Source text: (§1) To evaluate whether effector functions of primary T cells could be gated by lenalidomide, primary sCAR 913 T cells were generated. As the two split CAR components are delivered by separate lentivectors, this gave the ability to use FACS to purify cells expressing neither, one, or both components.
# (§2) Thalidomide analogs control degradable CAR T cell activation and effector functions in vitro and in vivo. To test whether degradable CAR T cell activation could be controlled with lenalidomide, 19BBz, 19BBz-dIKZF3, 19BBz-d91.3, and 19BBz-d91.3* Jurkat CAR T cell lines were co-cultured with K562 cells engineered to express the target antigen CD19 (K562-CD19) and 11 lenalidomide concentrations or vehicle control. […] To evaluate whether effector functions of degradable CAR T cells could be controlled with lenalidomide, primary human CAR T cells were generated and cytotoxicity assays performed comparing the conventional 19BBz CAR to the degradable 19BBz-d91.3 CAR in vitro. […] Then cytokine production was analyzed in response to antigen stimulation.
# (§3) Primary human CAR-T effector cells were co-cultured with NALM6 target cells engineered to express click beetle green luciferase at the indicated ratios for 16 hours. Luciferase activity was measured with a Synergy Neo2 luminescence microplate reader (Biotek). Cell culture supernatant from these experiments was analyzed for soluble cytokines (Luminex).
# NALM6 target cells [3] = assay: Cytokine production in CAR T:NALM6 co-culture supernatant (Luminex); format: cell-based; details: split CAR primary T cells, NALM6, 1000 nM lenalidomide
# Source text: as §1, §2, §3
# K562-CD19 cells = assay: Jurkat CAR functional assay: CD69 expression after co-culture with K562-CD19 cells; format: cell-based; details: lenalidomide
# Source text: FIG. 12A-12D—ON-switch split CARs only function in the presence of lenalidomide. (FIG. 12A) Schematic of split CAR constructs. Each split CAR is composed of the indicated antigen-binding part A and the ITAM-containing part B. The lenalidomide-induced dimerization module is encoded by zinc fingers from IKZF3 or the engineered 913 zinc finger and a fragment of CRBN (CRBNΔ3). The intracellular domains of each split CAR part A is protected from CRL4^CRBN ubiquitination by K>R “K0” substitutions. The control second generation CAR FMC63-CD28-CD3z was also used. sCAR, split CAR. […] (FIG. 12C) Primary T cells were infected with lentiviruses encoding parts A and B of split CAR 913. Untransduced cells and cells expressing components A only, B only, and both A+B were purified by FACS. Cytotoxic activity of each sorted cell population was measured after overnight co-culture with NALM6 target cells and lenalidomide or vehicle control at the indicated effector:target ratios. The maximum plasma concentration for once daily 25 mg lenalidomide in multiple myeloma patients is indicated. (FIG. 12D) Scatterplots showing the production of cytokines after co-culture (1:1 CAR T:NALM6 ratio) in the presence of 1000 nM lenalidomide versus vehicle control. Experiments were performed in triplicate and error bars indicate standard deviation.
# FIG. 24 Validation of lenalidomide-OFF-switch control of CAR T cell activation, as assessed by expression of the early activation marker CD69, in Jurkat T cells expressing various super-degron tagged chimeric antigen receptors. Regulation of CAR T cell activation with the indicated super-degrons, in comparison to the previously described degron d913. […]
# Thalidomide analogs control degradable CAR T cell activation and effector functions in vitro and in vivo. […] Then cytokine production was analyzed in response to antigen stimulation.
# [4] = target: CRBN (substrate receptor of the CRL4^CRBN E3 ubiquitin ligase) (UniProt Q96SW2 1-442); assay: cell-based or functional assay
# CRBN (substrate receptor of the CRL4^CRBN E3 ubiquitin ligase), sequence (Q96SW2 whole entry): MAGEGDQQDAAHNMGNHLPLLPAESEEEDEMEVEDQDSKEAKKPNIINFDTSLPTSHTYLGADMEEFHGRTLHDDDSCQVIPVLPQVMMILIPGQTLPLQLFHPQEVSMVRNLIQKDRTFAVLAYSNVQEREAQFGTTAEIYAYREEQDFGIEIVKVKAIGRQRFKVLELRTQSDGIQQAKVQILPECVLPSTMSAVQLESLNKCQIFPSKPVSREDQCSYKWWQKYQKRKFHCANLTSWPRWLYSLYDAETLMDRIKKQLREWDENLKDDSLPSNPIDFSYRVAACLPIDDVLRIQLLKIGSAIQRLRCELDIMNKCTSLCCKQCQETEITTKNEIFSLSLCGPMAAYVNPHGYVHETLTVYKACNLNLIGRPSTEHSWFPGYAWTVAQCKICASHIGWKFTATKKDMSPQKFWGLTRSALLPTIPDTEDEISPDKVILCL
# [5] = CC-122-induced degradation, eGFP:mCherry ratio, 16 hour incubation, read-out: EC50 cc122
# [6] = lenalidomide-induced degradation, eGFP:mCherry ratio, 16 hour incubation, read-out: EC50 len
# [7] = pomalidomide-induced degradation, eGFP:mCherry ratio, 16 hour incubation, read-out: EC50 pom
# [8] = lenalidomide, repeat experiment, read-out: EC50 len repeat
"EC50 [1, 5] [nM]","EC50 [1, 6] [nM]","EC50 [1, 7] [nM]",Molecule,other results
179,59.9,18.8,"FACVICGRKFRNRGLMQKHLKNH [HZnF_11, reference compound]",
33.5,21.9,3.1,"FQCNQCGASFTQKGNLLRHIKLH [HZnF_27, reference compound]","EC50 [1, 8]: 28.2 nM"
5.22,4.59,1.05,FQCNQCGASFTQPKSLARHLRLH [HZnF_20],"EC50 [1, 8]: 6.09 nM"
32.4,55.4,9.05,FQCNQCGASFTRHSHLIEHLKRH [HZnF_10],
56.1,433,21.9,FQCNQCGASFTRLSTLIQHQKVH [HZnF_06],
10.1,18.3,3.61,FQCNQCGASFTTKGSLIRHHRRH [HZnF_08],
2.46,11.2,0.311,FQCPICGLVIKRHSHLIEHLKRH [HZnF_21],"EC50 [1, 8]: 8.23 nM"
50.2,60.5,8.06,"FQCPICGLVIKRKSYWKRHMVIH [HZnF_16, reference compound]",
2.93,48,8.55,"FVCPRCGRGFSQPKSLARHLRLH [HZnF_05, reference compound]",
58.5,34.8,11.3,"HECKLCGASFRTKGSLIRHHRRH [HZnF_07, reference compound]",
33,57.8,5.47,"LQCEICGFTCRQKASLNWHMKKH [HZnF_13, reference compound]",
13.4,22.9,0.78,LQCEICGFTCRQKGNLLRHIKLH (FHCNQCGASFTQKGNLLRHIKLH) [HZnF_26],"EC50 [1, 8]: 29.4 nM"
0.983,6.45,0.146,LQCEICGFTCRQPKSLARHLRLH [HZnF_23],"EC50 [1, 8]: 4.66 nM"
73.4,149,5.29,LQCEICGFTCRRHSHLIEHLKRH [HZnF_17],
101,324,14.1,LQCEICGFTCRWSSHYQYHLRQH [HZnF_04],
2.42,12.2,0.212,LQCEICGYQCRQPKSLARHLRLH [HZnF_22],"EC50 [1, 8]: 6.59 nM"

"EC50 [1, 5] [nM]","EC50 [1, 6] [nM]","EC50 [1, 7] [nM]",Molecule,other results
37,75.1,,"LQCEICGYQCRQRASLNWHMKKH [HZnF_12, reference compound]",
0.693,6.64,,LQCEICGYQCRRKDRMSYHVRSH [HZnF_25],"EC50 [1, 8]: 3.53 nM; pomalidomide-dependent degradation compared with parent ZF ([1]; pomalidomide): more efficient pomalidomide-dependent degradation than either parent ZF"
7.07,22.5,1.86,"LQCEICGYQCRRLSTLIQHQKVH [HZnF_1, label misprinted]",
5.67,10.1,0.46,LQCEVCGFQCRQPKSLARHLRLH [HZnF_24],"EC50 [1, 8]: 15 nM"
73.6,78.6,7.41,"LQCEVCGFQCRQRASLKYHMTKH [HZnF_01, reference compound]",
68.2,,0.224,"YGCNECGKNFGRHSHLIEHLKRH [HZnF_09, reference compound]",
26,83.1,5.19,YQCKVCGRAFKQKGNLLRHIKLH [HZnF_14],
35.2,71.9,5.12,YQCKVCGRAFKRLSTLIQHQKVH [HZnF_15],
125,248,16.9,"YQCKVCGRAFKRVSHLTVHYRIH [8HZnF__19, label misprinted, reference compound]",
29.5,55.2,4.47,"YRCRACGRACSRLSTLIQHQKVH [HZnF_03, reference compound]",
176,100,,"YSCPVCGLRFKRKDRMSYHVRSH [HZnF_02, reference compound]",
,,,"sCAR-91.3: lenalidomide ON-switch split CAR with dimerization domain from hybrid d913 zinc finger and CRBNΔ3 (FNVLMVHKRSHTGERPLQCEICGFTCRQKGNLLRHIKLHTGEKPFKCHLCNYACQRRDAL; cysteine pairing not given here; also: fragment of split CAR, other chain or arm left off)","killing of NALM6 target cells (NALM6 target cells [2]): restricted to T cells expressing both halves of sCAR 91.3 in the presence of 1000 nM lenalidomide; IL2 production in co-culture (NALM6 target cells [3]): required the complete sCAR 91.3 and lenalidomide; fold lower EC50 than sCAR IKZF3 (K562-CD19 cells; Jurkat T cells exposed to CD19+ target cells): 7 fold; EC50 (K562-CD19 cells; split CAR-Jurkat cells co-cultured with K562-CD19, read-out: EC50 (percentage of CD69+ cells)): 29.3 nM"
,,,YSCPVCGLRFKRKDRMSYHVRSH (not fully specified; cysteine pairing not given here) [PATZ1_383_405-PATZ1_383_405_J1],"EC50 pom: pomalidomide-induced degradation, eGFP/mCherry reporter, Jurkat [4]: 32.4 nM"
,,,LQCEICGYQCRRKDRMSYHVRSH (not fully specified; cysteine pairing not given here) [ZN653_556_578-PATZ1_383_405_J1],"EC50 pom: pomalidomide-induced degradation, eGFP/mCherry reporter, Jurkat [4]: 0.16 nM"
,,,LQCEICGYQCRQRASLNWHMKKH (not fully specified; cysteine pairing not given here) [ZN653_556_578-ZN653_556_578_J1],"EC50 pom: pomalidomide-induced degradation, eGFP/mCherry reporter, Jurkat [4]: 5.17 nM"
